Test results: PubChem BioAssay (NCI)
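Method: 48-hour compound exposure of cells in 96-well plates, five concentrations, linear interpolation of endpoints. The concentration for 50% growth inhibition is given as GI50. TGI: total growth inhibition.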

Experiments:
Assay in all cases: NCI tumour cell line growth inhibition, 48 h
[1] = system: A549 NSCLC
[2] = system: ACHN renal
[3] = system: CCRF-CEM leukemia
[4] = system: HCC-2998 colon
[5] = system: HOP-62 NSCLC
[6] = system: NCI-H23 lung
[7] = system: SF-268 CNS
[8] = system: SF-295 CNS
[9] = system: HL-60(TB) leukemia
[10] = system: UACC-257 melanoma

Structure (SMILES) | GI50 [1] [µM] | TGI [1] [µM] | GI50 [2] [µM] | TGI [2] [µM] | GI50 [3] [µM] | TGI [3] [µM] | GI50 [4] [µM] | TGI [4] [µM] | GI50 [5] [µM] | TGI [5] [µM] | GI50 [6] [µM] | TGI [6] [µM] | GI50 [7] [µM] | TGI [7] [µM] | GI50 [8] [µM] | TGI [8] [µM] | GI50 [9] [µM] | TGI [9] [µM] | GI50 [10] [µM] | TGI [10] [µM]
Fc1cc2[nH]ncc2c2c3c(c(-c4cn[nH]c4C(F)(F)F)nc12)CCCC3 | 2.06 | > 100 | 0.947 | 7.58 | 1.89 | > 100 | 1.64 | 4.99 | 1.65 | 6.19 | 1.49 | 6.49 | 1.97 | 5.86 | 2.15 | 10.3 |  |  |  | 
O=c1[nH]c2ccccc2c2ccccc12 | > 100 | > 100 | > 100 | > 100 | > 100 | > 100 | > 100 | > 100 | > 100 | > 100 | > 100 | > 100 | > 100 | > 100 | > 100 | > 100 | > 100 | > 100 |  | 
CCC(C)[C@H]1O[C@]2(CC[C@@H]1C)C[C@@H]1C[C@@H](C/C=C(\C)[C@@H](OC3C[C@H](OC)C(O[C@H]4C[C@H](OC)[C@@H](O)[C@H](C)O4)[C@H](C)O3)[C@@H](C)/C=C/C=C3\CO[C@@H]4[C@H](O)C(C)=C[C@@H](C(=O)O1)[C@]34O)O2 (stereo not given in full) | 2.07 | 11.3 | 1.73 | 3.48 | 4 | 21.2 |  |  | 1.8 | 4.85 | 3.21 | 13.7 | 4.14 | 15.6 | 2.54 | 10.9 | 2.18 | 5.03 | 2.17 | 6.25
O=C(CC(Cl)=C(Cl)Cl)Nc1ccccc1 | > 100 | > 100 | > 100 | > 100 | > 100 | > 100 |  |  | > 100 | > 100 | > 100 | > 100 | > 100 | > 100 |  |  | > 100 | > 100 | > 100 | > 100
COc1cc(Nc2nc3cc(N)cc(N)c3nc2-c2ccccc2)cc(OC)c1OC | 29.8 | > 100 | 16.7 | 43 | 4.4 | 42 |  |  | 16.3 | 34.3 | 24.9 | 76.7 | 18.1 | 60.8 | 16 | 42.8 | 6.65 | 23.3 | 29.6 | > 100
N.N.N.N.N.[Co+3].[I-].[N-]=[N+]=[N-] | > 100 | > 100 | > 100 | > 100 | > 100 | > 100 | > 100 | > 100 | > 100 | > 100 | > 100 | > 100 | > 100 | > 100 | > 100 | > 100 |  |  | > 100 | > 100
O=C(N/C(=C\c1ccc(Cl)cc1)c1nc2ccccc2[nH]1)c1ccccc1 |  | 56.1 |  | 80.5 |  | 57.3 |  |  |  |  |  | 42.9 |  | 38.5 |  |  |  |  |  | 46.2
CN(C)C=Nc1ccn(CCO)c(=O)n1 |  | > 100 |  | > 100 |  | > 100 |  | > 100 |  | > 100 |  | > 100 |  | > 100 |  |  |  | > 100 |  | > 100
COc1ccc(C/C(=N/O)C(=O)NCCc2cc(Br)c(OCCCN(C)C)c(Br)c2)cc1Br |  | 38.4 |  | 30 |  |  |  | 28.5 |  | 30 |  |  |  | 39.4 |  | 34.7 |  | 28.1 |  | 30.6
CCOC(=O)/C(=C/N1CCN(C(=O)c2ccco2)C1=S)C(=O)c1ccccc1 | 11.6 | 36.3 | 8.48 | 17.6 | 15.6 | > 50 |  |  | 17.3 | > 50 | 7.7 | 14.7 | 7.18 | 19.9 | 16.4 | > 50 | 14.9 | 31 |  | 
COc1ccc(/C=C(/C#N)C(N)=O)c(OC)c1 |  | > 100 |  | > 100 |  | > 100 |  |  |  | > 100 |  | > 100 |  | > 100 |  | > 100 |  | > 100 |  | > 100
O=S(=O)(NCCCNc1nccc(-c2c(-c3ccc(O)cc3)nc3sccn23)n1)c1ccc(F)cc1 | 2.64 | 20.3 | 2.09 | > 100 |  |  | 3.37 | 6.93 | 3.67 | 14.9 | 2.24 | 7.7 | 2.94 | 14.7 | 1.99 | 4.56 | 2.61 | 5.61 | 0.134 | 2.36
